Measurements published in US20230093099A1, “COMPOUNDS AND METHODS OF TREATING CANCERS” (CULLGEN (SHANGHAI), INC., priority 2019, published 2023).

Tested on: RS4;11 cells
Assay: Cell viability assay (CellTiter-Glo) in RS4;11 cells
Format: cell-based
Settings: Homo sapiens, 72 h; RS4;11 cells; cell viability, 3 days, CellTiter-Glo; read-out: IC50
Method in brief: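 RS4;11 cells seeded at 5000 per well, exposed for 3 days to 8- or 12-point 3-fold serial dilutions. Viability read by CellTiter-Glo luminescence; IC50 fitted by nonlinear least-squares regression.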

Compound | IC50
O=C(CN1CCC(n2cc(-c3cnc4cccc(-c5cc(F)c(CN6CCOCC6)c(F)c5)c4n3)cn2)CC1)NCCCCNc1ccc2c(c1)C(=O)N(C1CCC(=O)NC1=O)C2=O (stereo not shown) [JA-176, 2-(4-(4-(8-(3,5-Difluoro-4-(morpholinomethyl)phenyl)quinoxalin-2-yl)-1H-pyrazol-1-yl)piperidin-1-yl)-N-(4-((2-(2,6-dioxopiperidin-3-yl)-1,3-dioxoisoindolin-5-yl)amino)butyl)acetamide] | 2790 nM
Cc1cnc(Nc2ccc(N3CCN(C(=O)CCCCCCCCC(=O)N[C@H](C(=O)N4C[C@H](O)C[C@H]4C(=O)NCc4ccc(-c5scnc5C)cc4)C(C)(C)C)CC3)cc2)nc1Nc1cccc(S(=O)(=O)NC(C)(C)C)c1 [JA-028, (2S,4R)-1-((S)-2-(10-(4-(4-((4-((3-(N-(tert-Butyl)sulfamoyl)phenyl)amino)-5-methylpyrimidin-2-yl)amino)phenyl)piperazin-1-yl)-10-oxodecanamido)-3,3-dimethylbutanoyl)-4-hydroxy-N-(4-(4-methylthiazol-5-yl)benzyl)pyrrolidine-2-carboxamide] | > 10000 nM
O=C(CN1CCC(n2cc(-c3cnc4cccc(-c5cc(F)c(CN6CCOCC6)c(F)c5)c4n3)cn2)CC1)NCCNc1cccc2c1C(=O)N(C1CCC(=O)NC1=O)C2=O (stereo not shown) [JA-144, 2-[4-[4-[8-[3,5-Difluoro-4-(morpholinomethyl)phenyl]quinoxalin-2-yl]pyrazol-1-yl]-1-piperidyl]-N-[2-[[2-(2,6-dioxo-3-piperidyl)-1,3-dioxo-isoindolin-4-yl]amino]ethyl]acetamide] | 2390 nM
Cn1c(=O)n(C2CCC(=O)NC2=O)c2ccc(NCCCCCC(=O)N3CCN(c4ccc(Nc5nc6cccc(-c7ccc(S(C)(=O)=O)cc7)n6n5)cc4)CC3)cc21 (stereo not shown) [JA-292, 3-(3-Methyl-5-((6-(4-(4-((5-(4-(methylsulfonyl)phenyl)-[1,2,4]triazolo[1,5-a]pyridin-2-yl)amino)phenyl)piperazin-1-yl)-6-oxohexyl)amino)-2-oxo-2,3-dihydro-1H-benzo[d]imidazol-1-yl)piperidine-2,6-dione] | > 500 nM
CS(=O)(=O)c1ccc(-c2cccc3nc(Nc4ccc(N5CCN(C(=O)CCCCCNc6ccc7c(c6)C(=O)N(C6CCC(=O)NC6=O)C7)CC5)cc4)nn23)cc1 (stereo not shown) [JA-276, 3-(6-((6-(4-(4-((5-(4-(Methylsulfonyl)phenyl)-[1,2,4]triazolo[1,5-a]pyridin-2-yl)amino)phenyl)piperazin-1-yl)-6-oxohexyl)amino)-1-oxoisoindolin-2-yl)piperidine-2,6-dione] | > 10000 nM
Cc1ncsc1-c1ccc(CNC(=O)[C@@H]2C[C@@H](O)CN2C(=O)[C@@H](NC(=O)CCCCCNC(=O)CN2CCN(c3ccc(Nc4nc5cccc(-c6ccc(S(C)(=O)=O)cc6)n5n4)cc3)CC2)C(C)(C)C)cc1 [JA-122, (2S,4R)-1-((S)-3,3-Dimethyl-2-(6-(2-(4-(4-((5-(4-(methylsulfonyl)phenyl)-[1,2,4]triazolo[1,5-a]pyridin-2-yl)amino)phenyl)piperazin-1-yl)acetamido)hexanamido)butanoyl)-4-hydroxy-N-(4-(4-methylthiazol-5-yl)benzyl)pyrrolidine-2-carboxamide] | > 10000 nM
CS(=O)(=O)c1ccc(-c2cccc3nc(Nc4ccc(N5CCN(C(=O)CCCNc6ccc7c(c6)C(=O)N(C6CCC(=O)NC6=O)C7=O)CC5)cc4)nn23)cc1 (stereo not shown) [JA-216, 2-(2,6-Dioxopiperidin-3-yl)-5-((4-(4-(4-((5-(4-(methylsulfonyl)phenyl)-[1,2,4]triazolo[1,5-a]pyridin-2-yl)amino)phenyl)piperazin-1-yl)-4-oxobutyl)amino)isoindoline-1,3-dione] | 3410 nM
Cc1cnc(Nc2ccc(N3CCN(CC(=O)NCCCCCNc4ccc5c(c4)C(=O)N(C4CCC(=O)NC4=O)C5=O)CC3)cc2)nc1Nc1cccc(S(=O)(=O)NC(C)(C)C)c1 (stereo not shown) [JA-244, 2-(4-(4-((4-((3-(N-(tert-butyl)sulfamoyl)phenyl)amino)-5-methylpyrimidin-2-yl)amino)phenyl)piperazin-1-yl)-N-(5-((2-(2,6-dioxopiperidin-3-yl)-1,3-dioxoisoindolin-5-yl)amino)pentyl)acetamide] | > 10000 nM
Cc1cnc(Nc2ccc(N3CCN(C(=O)CCOCCOCCOCCOCCOCCC(=O)N[C@H](C(=O)N4C[C@H](O)C[C@H]4C(=O)NCc4ccc(-c5scnc5C)cc4)C(C)(C)C)CC3)cc2)nc1Nc1cccc(S(=O)(=O)NC(C)(C)C)c1 [JA-037, (2S,4R)-1-((S)-2-(tert-Butyl)-22-(4-(4-((4-((3-(N-(tert-butyl)sulfamoyl)phenyl)amino)-5-methylpyrimidin-2-yl)amino)phenyl)piperazin-1-yl)-4,22-dioxo-7,10,13,16,19-pentaoxa-3-azadocosanoyl)-4-hydroxy-N-(4-(4-methylthiazol-5-yl)benzyl)pyrrolidine-2-carboxamide] | > 10000 nM
Cc1ncsc1-c1ccc(CNC(=O)[C@@H]2C[C@@H](O)CN2C(=O)[C@@H](NC(=O)CCOCCOCCOCCNC(=O)CN2CCC(n3cc(-c4cnc5cccc(-c6cc(F)c(CN7CCOCC7)c(F)c6)c5n4)cn3)CC2)C(C)(C)C)cc1 [JA-151, (2S,4R)-1-((S)-17-(tert-Butyl)-1-(4-(4-(8-(3,5-difluoro-4-(morpholinomethyl)phenyl)quinoxalin-2-yl)-1H-pyrazol-1-yl)piperidin-1-yl)-2,15-dioxo-6,9,12-trioxa-3,16-diazaoctadecan-18-oyl)-4-hydroxy-N-(4-(4-methylthiazol-5-yl)benzyl)pyrrolidine-2-carboxamide] | > 10000 nM
Cc1cnc(Nc2ccc(N3CCN(CC(=O)NCCCCCCCCC(=O)N[C@H](C(=O)N4C[C@H](O)C[C@H]4C(=O)NCc4ccc(-c5scnc5C)cc4)C(C)(C)C)CC3)cc2)nc1Nc1cccc(S(=O)(=O)NC(C)(C)C)c1 [JA-104, (2S,4R)-1-((S)-2-(9-(2-(4-(4-((4-((3-(N-(tert-Butyl)sulfamoyl)phenyl)amino)-5-methylpyrimidin-2-yl)amino)phenyl)piperazin-1-yl)acetamido)nonanamido)-3,3-dimethylbutanoyl)-4-hydroxy-N-(4-(4-methylthiazol-5-yl)benzyl)pyrrolidine-2-carboxamide] | > 10000 nM
Cc1cnc(Nc2ccc(N3CCN(C(=O)CCCCCCCCCC(=O)N[C@H](C(=O)N4C[C@H](O)C[C@H]4C(=O)NCc4ccc(-c5scnc5C)cc4)C(C)(C)C)CC3)cc2)nc1Nc1cccc(S(=O)(=O)NC(C)(C)C)c1 [JA-029, (2S,4R)-1-((S)-2-(11-(4-(4-((4-((3-(N-(tert-Butyl)sulfamoyl)phenyl)amino)-5-methylpyrimidin-2-yl)amino)phenyl)piperazin-1-yl)-11-oxoundecanamido)-3,3-dimethylbutanoyl)-4-hydroxy-N-(4-(4-methylthiazol-5-yl)benzyl)pyrrolidine-2-carboxamide] | > 10000 nM

Further compounds by falling IC50, results first:

IC50 | Compound
1350 nM | O=C1CCC(N2C(=O)c3ccc(CCCCCCCN4CCC(n5cc(-c6cnc7cccc(-c8cc(F)c(CN9CCOCC9)c(F)c8)c7n6)cn5)CC4)cc3C2=O)C(=O)N1 (stereo not shown) [JA-265, 5-(7-(4-(4-(8-(3,5-Difluoro-4-(morpholinomethyl)phenyl)quinoxalin-2-yl)-1H-pyrazol-1-yl)piperidin-1-yl)heptyl)-2-(2,6-dioxopiperidin-3-yl)isoindoline-1,3-dione]
890 nM | O=C(CN1CCC(n2cc(-c3cnc4cccc(-c5cc(F)c(CN6CCOCC6)c(F)c5)c4n3)cn2)CC1)NCCCCCNc1ccc2c(c1)C(=O)N(C1CCC(=O)NC1=O)C2=O (stereo not shown) [JA-177, 2-(4-(4-(8-(3,5-Difluoro-4-(morpholinomethyl)phenyl)quinoxalin-2-yl)-1H-pyrazol-1-yl)piperidin-1-yl)-N-(5-((2-(2,6-dioxopiperidin-3-yl)-1,3-dioxoisoindolin-5-yl)amino)pentyl)acetamide]
872 nM | Cc1ncsc1-c1ccc(CNC(=O)[C@@H]2C[C@@H](O)CN2C(=O)[C@@H](NC(=O)CCCCCCCC(=O)N2CCN(c3ccc(Nc4nc5cccc(-c6ccc(S(C)(=O)=O)cc6)n5n4)cc3)CC2)C(C)(C)C)cc1 [JA-065, (2S,4R)-1-((S)-3,3-Dimethyl-2-(9-(4-(4-((5-(4-(methylsulfonyl)phenyl)-[1,2,4]triazolo[1,5-a]pyridin-2-yl)amino)phenyl)piperazin-1-yl)-9-oxononanamido)butanoyl)-4-hydroxy-N-(4-(4-methylthiazol-5-yl)benzyl)pyrrolidine-2-carboxamide]
723 nM | Cc1cnc(Nc2ccc(N3CCN(CC(=O)NCCOCCOCCNc4ccc5c(c4)C(=O)N(C4CCC(=O)NC4=O)C5=O)CC3)cc2)nc1Nc1cccc(S(=O)(=O)NC(C)(C)C)c1 (stereo not shown) [JA-238, 2-(4-(4-((4-((3-(N-(tert-butyl)sulfamoyl)phenyl)amino)-5-methylpyrimidin-2-yl)amino)phenyl)piperazin-1-yl)-N-(2-(2-(2-((2-(2,6-dioxopiperidin-3-yl)-1,3-dioxoisoindolin-5-yl)amino)ethoxy)ethoxy)ethyl)acetamide]
647 nM | O=C1CCC(N2C(=O)c3ccc(C#CCCCCC(=O)N4CCC(n5cc(-c6cnc7cccc(-c8cc(F)c(CN9CCOCC9)c(F)c8)c7n6)cn5)CC4)cc3C2=O)C(=O)N1 (stereo not shown) [JA-258, 5-(7-(4-(4-(8-(3,5-Difluoro-4-(morpholinomethyl)phenyl)quinoxalin-2-yl)-1H-pyrazol-1-yl)piperidin-1-yl)-7-oxohept-1-yn-1-yl)-2-(2,6-dioxopiperidin-3-yl)isoindoline-1,3-dione]
357 nM | Cc1cnc(Nc2ccc(N3CCN(C(=O)CCOCCOCCOCCNc4cccc5c4C(=O)N(C4CCC(=O)NC4=O)C5=O)CC3)cc2)nc1Nc1cccc(S(=O)(=O)NC(C)(C)C)c1 (stereo not shown) [JA-019, N-(tert-Butyl)-3-((2-((4-(4-(3-(2-(2-(2-((2-(2,6-dioxopiperidin-3-yl)-1,3-dioxoisoindolin-4-yl)amino)ethoxy)ethoxy)ethoxy)propanoyl)piperazin-1-yl)phenyl)amino)-5-methylpyrimidin-4-yl)amino)benzenesulfonamide]
98.6 nM | O=C1CCC(N2C(=O)c3ccc(C#CCCCCCN4CCC(n5cc(-c6cnc7cccc(-c8cc(F)c(CN9CCOCC9)c(F)c8)c7n6)cn5)CC4)cc3C2=O)C(=O)N1 (stereo not shown) [JA-264, 5-(7-(4-(4-(8-(3,5-difluoro-4-(morpholinomethyl)phenyl)quinoxalin-2-yl)-1H-pyrazol-1-yl)piperidin-1-yl)hept-1-yn-1-yl)-2-(2,6-dioxopiperidin-3-yl)isoindoline-1,3-dione]
